Article PMC4626217 (Bioorganic & medicinal chemistry, 2015)

Legend:
HDACs 1–3 = experiment: HDAC biochemical assay, text summary over HDACs 1–3; design: species or system human; details: summary of Table 1; for IC50: read-out: IC50 for HDACs 1–3; for IC50 range in words: HDACs 1–3 where stated, unit inside the printed words
HDAC1 = HDAC1 (Homo sapiens, UniProt Q13547); experiment: HDAC biochemical assay; details: relative to compound 6
[1] = test system: 797 NUT midline carcinoma cell line; experiment: 797 cell viability; format: cell-based; details: 48 hours incubation, ATPLite; ± standard error of LogIC50
[2] = test system: 10326 NUT midline carcinoma cell line; experiment: 10326 cell viability; format: cell-based; details: 48 hours incubation, ATPLite; ± standard error of LogIC50

HDAC1, sequence (Q13547 whole entry): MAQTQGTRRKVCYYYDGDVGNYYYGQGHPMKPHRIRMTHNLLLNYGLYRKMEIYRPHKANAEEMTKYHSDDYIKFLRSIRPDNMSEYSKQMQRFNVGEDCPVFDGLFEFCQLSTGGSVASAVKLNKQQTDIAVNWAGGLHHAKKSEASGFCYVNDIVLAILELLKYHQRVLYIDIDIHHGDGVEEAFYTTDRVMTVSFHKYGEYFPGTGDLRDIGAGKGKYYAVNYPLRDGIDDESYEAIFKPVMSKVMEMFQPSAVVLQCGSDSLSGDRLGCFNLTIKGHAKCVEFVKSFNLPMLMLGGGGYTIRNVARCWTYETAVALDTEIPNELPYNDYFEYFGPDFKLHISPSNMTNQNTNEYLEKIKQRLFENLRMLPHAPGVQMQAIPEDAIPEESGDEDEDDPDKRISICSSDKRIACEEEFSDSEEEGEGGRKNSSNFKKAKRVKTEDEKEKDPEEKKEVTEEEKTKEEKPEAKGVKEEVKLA

Row | Compound | IC50 range in words (HDACs 1–3) | fold decrease in activity in HDAC1 in going from 6 to its amide isostere (HDAC1) [fold] | IC50 (HDACs 1–3) [nM] | 797 LogIC50 [1] | 10326 LogIC50 [2]
1 | CC(C)[C@@H]1NC(=O)[C@]2(C)CSC(=N2)c2ccnc(c2)CNC(=O)C[C@@H](/C=C/CCS)NC1=O [Compound 12, Peptide isostere pyridyl “OUT” thiol] | double-digit nM range |  | < 25 |  | 
2 | CC(C)[C@@H]1NC(=O)[C@]2(C)CSC(=N2)c2csc(n2)CNC(=O)C[C@@H](/C=C/CCS)OC1=O [Compound 2, Largazole thiol, reference compound] |  |  | < 25 |  | 
3 | CC(C)[C@@H]1NC(=O)[C@]2(C)CSC(=N2)c2csc(n2)CNC(=O)C[C@@H](/C=C/CCS)NC1=O [Compound 4, Largazole peptide isostere thiol] |  |  | < 25 | −5.761 ± 0.05449 | −4.923 ± 0.9900

The next lines start with results.

Row | IC50 range in words (HDACs 1–3) | fold decrease in activity in HDAC1 in going from 6 to its amide isostere (HDAC1) [fold] | Compound | IC50 (HDACs 1–3) [nM] | 797 LogIC50 [1] | 10326 LogIC50 [2]
4 | single digit nM range |  | CC(C)[C@@H]1NC(=O)[C@]2(C)CSC(=N2)c2cccc(n2)CNC(=O)C[C@@H](/C=C/CCS)OC1=O [Compound 6, Depsipeptide pyridyl “IN” thiol] | < 25 |  | 
5 | double-digit nM range | 16 | CC(C)[C@@H]1NC(=O)[C@]2(C)CSC(=N2)c2cccc(n2)CNC(=O)C[C@@H](/C=C/CCS)NC1=O [Compound 10, Peptide isostere pyridyl “IN” thiol] |  |  | 
6 | single digit nM range |  | CC(C)[C@@H]1NC(=O)[C@]2(C)CSC(=N2)c2ccnc(c2)CNC(=O)C[C@@H](/C=C/CCS)OC1=O [Compound 8, Depsipeptide pyridyl “OUT” thiol] | < 25 |  | 
